Results from ChEMBL document CHEMBL1201862, “PubChem BioAssay data set” (2004).
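Following 48 hours of exposure in 96-well plates, responses at five concentrations were used to interpolate endpoints linearly. GI50 = concentration required for 50% inhibition of growth.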 Calls of active or inactive are those of the source. Cut-off read from the data, not from the text of the source: active = GI50 up to about 1.1 µM and inactive = higher.

Assays:
Experiment in all cases: NCI-60 cell line screen, 48 h
SW-620 = tested on: SW-620
K562 = tested on: K562
HCT-15 = tested on: HCT-15
HOP-92 = tested on: HOP-92
HT-29 = tested on: HT-29
SK-OV-3 = tested on: SK-OV-3
SN12C = tested on: SN12C
SK-MEL-5 = tested on: SK-MEL-5
LXFL 529 = tested on: LXFL 529
SK-MEL-2 = tested on: SK-MEL-2
CCRF-CEM = tested on: CCRF-CEM
HL-60 = tested on: HL-60
MOLT-4 = tested on: MOLT-4
ACHN = tested on: ACHN
OVCAR-4 = tested on: OVCAR-4
UACC-257 = tested on: UACC-257
A498 = tested on: A498
SK-MEL-28 = tested on: SK-MEL-28

For CC(=O)Nc1c(C)ccc2c1C(=O)c1ccccc1C2=O, which GI50 (SW-620) is on record?
The GI50 was > 100 µM (inactive).

And the GI50 (K562)?
The GI50 was > 100 µM (inactive).

And the GI50 (HCT-15)?
Its GI50 is > 100 µM.

What about the GI50 (HOP-92) of the same compound?
Its GI50 is > 100 µM (inactive).

What about the GI50 (HT-29) of the same compound?
The GI50 was > 100 µM (inactive).

What about the GI50 (SK-OV-3) of the same compound?
The GI50 was > 100 µM (inactive).

What about the GI50 (SN12C) of the same compound?
The GI50 was > 100 µM (inactive).

And the GI50 (SK-MEL-5)?
The GI50 was > 100 µM (inactive).

And the GI50 (LXFL 529)?
Its GI50 is > 100 µM (inactive).

What about the GI50 (SK-MEL-2) of the same compound?
The GI50 was > 100 µM (inactive).

And the GI50 (CCRF-CEM)?
The GI50 was 80.4 µM (inactive).

What about the GI50 (HL-60) of the same compound?
Its GI50 is 47.2 µM (inactive).

What about the GI50 (MOLT-4) of the same compound?
Its GI50 is > 100 µM (inactive).

What about the GI50 (ACHN) of the same compound?
Its GI50 is > 100 µM (inactive).

What about the GI50 (OVCAR-4) of the same compound?
Its GI50 is > 100 µM (inactive).

What about the GI50 (UACC-257) of the same compound?
Its GI50 is > 100 µM (inactive).

What about the GI50 (A498) of the same compound?
Its GI50 is > 100 µM (inactive).

Which GI50 (SW-620) does the source give for S=C1NC(c2ccccc2)=NC(Cc2ccccc2)(c2ccccc2)N1c1ccccc1 (stereo not given) here?
Its GI50 is > 100 µM (inactive).

What about the GI50 (K562) of the same compound?
The GI50 was > 100 µM (inactive).

What about the GI50 (HCT-15) of the same compound?
Its GI50 is > 100 µM.

What about the GI50 (HOP-92) of the same compound?
Its GI50 is > 100 µM (inactive).

And the GI50 (HT-29)?
Its GI50 is > 100 µM (inactive).

And the GI50 (SK-MEL-28)?
Its GI50 is > 100 µM (inactive).

What about the GI50 (SN12C) of the same compound?
The GI50 was > 100 µM (inactive).

What about the GI50 (SK-MEL-5) of the same compound?
The GI50 was > 100 µM (inactive).

What about the GI50 (LXFL 529) of the same compound?
The GI50 was > 100 µM (inactive).

What about the GI50 (CCRF-CEM) of the same compound?
The GI50 was > 100 µM (inactive).

And the GI50 (HL-60)?
Its GI50 is > 100 µM (inactive).

What about the GI50 (MOLT-4) of the same compound?
Its GI50 is > 100 µM (inactive).

What about the GI50 (ACHN) of the same compound?
The GI50 was 97.1 µM (inactive).

What about the GI50 (OVCAR-4) of the same compound?
Its GI50 is 42.1 µM (inactive).

What about the GI50 (UACC-257) of the same compound?
Its GI50 is > 100 µM (inactive).

What about the GI50 (A498) of the same compound?
The GI50 was > 100 µM (inactive).

What does the source list for CN1N=CSC12C(=O)N(c1ccc(Cl)cc1)C(=O)N2c1ccc(Cl)cc1 (stereo not given)?
GI50 (SW-620): 4.52 µM (inactive); GI50 (K562): 2.99 µM (inactive); GI50 (HOP-92): 3.15 µM (inactive); GI50 (HT-29): 3.4 µM (inactive); GI50 (SK-MEL-28): 4.4 µM (inactive); GI50 (SK-OV-3): 3.95 µM (inactive); GI50 (SN12C): 3.44 µM (inactive); GI50 (SK-MEL-5): 3.55 µM (inactive); GI50 (LXFL 529): 3.34 µM (inactive); GI50 (CCRF-CEM): 3.37 µM (inactive); GI50 (HL-60): 2.13 µM (inactive); GI50 (MOLT-4): 2.67 µM (inactive); GI50 (ACHN): 2.77 µM (inactive); GI50 (OVCAR-4): 5.24 µM (inactive); GI50 (UACC-257): 3.15 µM (inactive); GI50 (A498): 3.1 µM (inactive)

What does the source list for COc1c(CC(=O)c2ccccc2)c2ccccc2n1C(C)=O?
GI50 (SW-620): > 100 µM (inactive); GI50 (K562): > 100 µM (inactive); GI50 (HCT-15): > 100 µM; GI50 (HOP-92): > 100 µM (inactive); GI50 (HT-29): > 100 µM (inactive); GI50 (SK-MEL-28): > 100 µM (inactive); GI50 (SK-OV-3): > 100 µM (inactive); GI50 (SN12C): > 100 µM (inactive); GI50 (LXFL 529): > 100 µM (inactive); GI50 (SK-MEL-2): > 100 µM (inactive); GI50 (CCRF-CEM): > 100 µM (inactive); GI50 (HL-60): > 100 µM (inactive); GI50 (MOLT-4): > 100 µM (inactive); GI50 (ACHN): > 100 µM (inactive); GI50 (OVCAR-4): > 100 µM (inactive); GI50 (UACC-257): > 100 µM (inactive); GI50 (A498): > 100 µM (inactive)

Which GI50 (SW-620) does the source give for O=C1N(Cl)C(=O)C(c2ccc(Cl)cc2)(c2ccc(Cl)cc2)N1Cl here?
The GI50 was > 100 µM (inactive).

What about the GI50 (K562) of the same compound?
The GI50 was > 100 µM (inactive).

What about the GI50 (HCT-15) of the same compound?
Its GI50 is 91.8 µM.

What about the GI50 (HOP-92) of the same compound?
The GI50 was > 100 µM (inactive).

And the GI50 (HT-29)?
Its GI50 is 78.9 µM (inactive).

And the GI50 (SK-MEL-28)?
Its GI50 is > 100 µM (inactive).

What about the GI50 (SK-OV-3) of the same compound?
Its GI50 is > 100 µM (inactive).

And the GI50 (SN12C)?
The GI50 was 96.8 µM (inactive).

What about the GI50 (SK-MEL-5) of the same compound?
Its GI50 is > 100 µM (inactive).

What about the GI50 (LXFL 529) of the same compound?
The GI50 was 63 µM (inactive).

What about the GI50 (SK-MEL-2) of the same compound?
Its GI50 is > 100 µM (inactive).

What about the GI50 (CCRF-CEM) of the same compound?
Its GI50 is 22.6 µM (inactive).

What about the GI50 (HL-60) of the same compound?
Its GI50 is 26.1 µM (inactive).

And the GI50 (MOLT-4)?
The GI50 was 56.8 µM (inactive).

What about the GI50 (ACHN) of the same compound?
Its GI50 is 55.8 µM (inactive).

What about the GI50 (OVCAR-4) of the same compound?
The GI50 was > 100 µM (inactive).

And the GI50 (A498)?
Its GI50 is > 100 µM (inactive).

For CCOc1ccc(NC(=O)C(=O)C(C(=O)c2ccc3ccccc3c2)C2OC(=O)c3ccccc32)cc1 (stereo not given), which GI50 (SW-620) is on record?
The GI50 was 15.6 µM (inactive).

What about the GI50 (K562) of the same compound?
The GI50 was 20.5 µM (inactive).

And the GI50 (HCT-15)?
Its GI50 is 13.7 µM.

What about the GI50 (HOP-92) of the same compound?
The GI50 was 19.5 µM (inactive).

And the GI50 (HT-29)?
Its GI50 is 34.4 µM (inactive).

What about the GI50 (SK-MEL-28) of the same compound?
The GI50 was 13.6 µM (inactive).

What about the GI50 (SK-OV-3) of the same compound?
Its GI50 is 50.9 µM (inactive).

And the GI50 (SN12C)?
The GI50 was 17.2 µM (inactive).

What about the GI50 (SK-MEL-5) of the same compound?
The GI50 was 14.2 µM (inactive).

And the GI50 (LXFL 529)?
Its GI50 is 6.9 µM (inactive).

What about the GI50 (SK-MEL-2) of the same compound?
Its GI50 is 15.5 µM (inactive).

What about the GI50 (CCRF-CEM) of the same compound?
The GI50 was 7.08 µM (inactive).

What about the GI50 (MOLT-4) of the same compound?
Its GI50 is 4.57 µM (inactive).

What about the GI50 (ACHN) of the same compound?
The GI50 was 33.4 µM (inactive).

What about the GI50 (OVCAR-4) of the same compound?
The GI50 was 12.5 µM (inactive).

What about the GI50 (UACC-257) of the same compound?
Its GI50 is 17 µM (inactive).

And the GI50 (A498)?
The GI50 was 15.1 µM (inactive).
